Assay results published in patent publication US20250057791A1, “PROTECTION AGAINST ARTHROPOD PARASITES WITH PURINERGIC RECEPTOR (OPR) ANTAGONISTS” (priority 2021, published 2025).

How the values were obtained:
Glossina pallidipes = assay: Membrane feeding assay, tsetse fly Glossina pallidipes; type: in vivo; conditions: for effect on feeding, compound in solution containing ATP, in words: doses as in Table 10
Protocol: (§1) Flies of both species were transferred 30 min before feeding experiments to feeding cages as used for mosquitoes at 24° C., 80% RH in an environmental cabinet. Teneral tsetse were fed at 2 to 4 days old during the photophase with between 7 and 13 flies per feeding cage, covered with a black cloth. Horn flies were tested at 1 and 2 days old in the photophase with between 6 and 21 flies per cage. Both fly species were fed using small Hemotek feeding reservoirs (29 mm diameter, 1 ml) equipped with a membrane as for mosquitoes. Horn flies were fed for 15 min with feeding reservoirs placed on the cage. For tsetse, cages were closed with black mosquito netting at the bottom to allow flies to feed through the membrane placed under the cage. Feeding time (1.5 to 6 min) for tsetse was adjusted as a function of age to achieve at least 30% feeding on the positive control included in each feeding experiment. The positive control for both fly species contained 150 mM NaCl, 8.9 mM NaHCO3 with 100 μM ATP added, hereafter termed fly feeding solution (FFS). The pH of the FFS was adjusted as for ticks. The effect of TMP on feeding by G. pallidipes was also tested at 16 μg TMP/cm^2 dissolved in 140 μl hexane and applied homogeneously to the membrane surface using a micropipette. Hexane was used to treat the membrane with TMP to avoid the test compound being dispersed by fly wing-fanning. Flies of both species were activated just prior to feeding on a treatment by exhalation into the cage. Tsetse that had fed were identified with swollen abdomens and counted at the end of a feeding experiment. Since it was difficult to ascertain by eye whether a horn fly had fed on a treatment, 10 μl/ml of blue food colorant (No. 4866908, Trawosa AG, St. Gallen, Switzerland) was added. This facilitated the detection of ingested liquid when the abdomen of flies, killed by freezing, was squashed onto filter paper. Only experiments in which the feeding rate by flies was >30% on the positive control were included in analyses.
(§2) Uptake of TFS containing PR antagonists, converted to mg/h for hard ticks and weight gains in mg/25 min for soft ticks, was compared to TFS uptake in the corresponding positive controls. […] For tsetse and horn flies the percentage flies that fed per antagonist treatment served as the criterion for inhibition of feeding. As horn fly sexes emerged within 24 h, both sexes were assumed to show the same degree of appetence. In tsetse, males emerged first so a gender-related appetence could not be excluded. No sex-related feeding differences in feeding were found for testse (GLM, P>0.05) so data for the sexes were pooled. Comparisons of percentage fed flies were made using a Bayesian GLM—the most appropriate model considering the zero-inflated distributions shown by the data sets. […] P-values were corrected using Holm's FWEC in multiple comparisons of data for each tick and fly species.

Haematobia irritans = assay: Membrane feeding assay, horn fly Haematobia irritans; type: in vivo; conditions: for effect on feeding on solutions containing ATP, in words: doses as in Table 10
Protocol: as §1, §2

[1] = test system: A. gambiae mouthpart ATP-sensitive receptor; assay: Electrophysiological response to 200 pM ATP with PR antagonist admixed; type: cell-based, Anopheles gambiae; conditions: for effect on EP response to ATP, in words: 200 pM ATP, suramin at 1 nM; for ID95 in nM (±s.e.m.): increasing doses admixed to 200 pM ATP
Protocol: The tip recording method was used to record action potentials (spikes) from sensory cells in sensilla on A. gambiae labellum lobes.
Sensilla were exposed to test compounds and PR antagonists for ca. 2-4 s and spikes were counted in the first 2 s of recordings. Up to 4 test compounds were tested on a sensillum to evaluate potential agonists, each presented at 200 pM. To study responses as a function of dose for agonists ATP, adenosine, AMP, AMP-CPP and ATP+adenosine, up to 7 recordings were made at increasing doses of agonist from the same sensillum. Unless otherwise stated, recordings were made throughout from 4 to 16 sensilla from individual 4-6-day-old females per dose of agonist, antagonist and metal ion modulator. For example, a response curve established over 6 doses of an antagonist using 8 sensilla per dose involved recording from a sensillum of 48 separate mosquitoes. A given dose of a PR antagonist or metal ion modulator was only presented once to a sensillum. Two-second recordings were imported as ASCII files into DataView software for analysis of spike amplitude. Differences in spike amplitude generated by stimulation of one 8v sensillum/female with 1 mM sucrose (n=294 spikes from 6 females) 200 pM adenosine (n=207 spikes from 7 females) and 200 pM ATP (n=192 spikes from 7 females) were compared by measuring the spike amplitude in mV between the highest point of depolarisation and the lowest point of hyperpolarisation.
Pairwise comparisons of A. gambiae electrophysiological (EP) responses to ATP and adenosine alone and combined with a given dose of PR antagonist, EP responses to ATP alone and combined with a given dose of a metal modulator, and EP responses to ATP prior to and after exposure of a sensillum to a given dose of a PR antagonist were made with a one-tailed Wilcoxon signed-rank test for data showing a non-normal distribution, with a paired Student's t-test for normally distributed data showing homogeneous variance and with a Welch's t-test for normally distributed data showing non-homogeneous variance. Effects on feeding of adding ATP, AMP-CPP, adenosine, ATP+adenosine, AMP and ADP-βS, CPT with ATP or adenosine, TMP with ATP+adenosine, TMP+CPT with ATP+adenosine to the FS for A. gambiae, and of adding PR antagonists with ATP to the FS for A. stephensi were compared using one-tailed Mann-Whitney U-test or Welch's t-test, depending on data distribution; Holm's FWEC was applied where treatment comparisons involved the same positive control. Percent feeding inhibition induced by PR antagonists in A. stephensi was calculated using Abbott's formula.
Dose-response models fitted to mosquito data were generated using the ‘drm’ command in the “drc” R package (version 2.5-12). Best fitting models (goodness of fit) and effects of dose of a compound were assessed using, respectively, ‘modelFit’ and ‘noEffect’ functions in the same R package. A 3-parameter logistic model (L3) was fitted to spike-counts recorded to increasing doses of adenosine, AMP, ATP and AMP-CPP. Spike numbers recorded in response to 200 pM ATP with increasing doses of PR antagonists added were analysed using a 4-parameter log-logistic model (LL.4) for A-317491 and spinorphin, using a 4-parameter Weibull model (W1.4) for PPADS, RB-2 and TMP, and using a 3-parameter log-logistic model (LL.3) for suramin. An L3 model was fitted to proportions of females feeding on increasing doses of ATP. Feeding rates on 20 μM ATP with increasing doses of a PR antagonist added were analysed using a 4-parameter log-logistic model (LL.4) with the median of the positive control (20 μM ATP) fixed as the upper asymptote. Response dynamics in 3-parameter models are related to the slope b, the upper asymptote, and inflexion point of the model e (the ED50 value), whereas 4 parameter models also include the lower asymptote parameter. […]

Row | Structure (SMILES) | % Fed, Median (Glossina pallidipes; FFS + 1 μM) [%] | effect on feeding, compound in solution containing ATP, in words (Glossina pallidipes) | % Fed, Median (Haematobia irritans; FFS + 10 μM) [%] | % Fed, Median (Haematobia irritans; FFS + 100 μM) [%] | effect on feeding on solutions containing ATP, in words (Haematobia irritans) | effect on EP response to ATP, in words [1] | Mean no. of spikes per 2 s (±s.e.m.), ATP + antagonist ([1]; antagonist 0.5 nM + 200 pM ATP) [spikes per 2 s] | % Fed, Median (Glossina pallidipes; FFS + 50 μM) [%] | % Fed, Median (Haematobia irritans; FFS + 50 μM) [%] | Mean no. of spikes per 2 s (±s.e.m.), ATP + antagonist ([1]; antagonist 0.6 nM + 200 pM ATP) [spikes per 2 s] | ID95 in nM (±s.e.m.) [1] [nM] | % Fed, Median (Glossina pallidipes; FFS + 16 μg/cm^2 on membrane) [%] | % Fed, Median (Glossina pallidipes; FFS + 150 μM) [%] | effect on feeding, compound applied onto the feeding membrane, in words (Glossina pallidipes; dose as in Table 10) | % Fed, Median (Haematobia irritans; FFS + 500 μM) [%] | Mean no. of spikes per 2 s (±s.e.m.), ATP + antagonist ([1]; antagonist 10 nM + 200 pM ATP) [spikes per 2 s]
1 | O=C(O)c1cc(C(=O)O)c(C(=O)N(Cc2cccc(Oc3ccccc3)c2)[C@H]2CCCc3ccccc32)cc1C(=O)O [A-317491, 5-[(3-phenoxyphenyl)methyl-[(1S)-1,2,3,4-tetrahydronaphthalen-1-yl]carbamoyl]benzene-1,2,4-tricarboxylic acid] | 22.5 | inhibited feeding | 58.3 | 41.5 | inhibited feeding | inhibited | 7.5 |  |  |  |  |  |  |  |  | 
2 | Cc1ccc(C(=O)Nc2ccc(S(=O)(=O)O)c3cc(S(=O)(=O)O)cc(S(=O)(=O)O)c23)cc1NC(=O)c1cccc(NC(=O)Nc2cccc(C(=O)Nc3cc(C(=O)Nc4ccc(S(=O)(=O)O)c5cc(S(=O)(=O)O)cc(S(=O)(=O)O)c45)ccc3C)c2)c1 [Suramin] |  |  |  | 46.2 |  |  |  | 45.5 | 61.5 | 4.20 | 1.15 |  |  |  |  | 
3 | Cc1nc(C)c(C)nc1C [TMP, 2,3,5,6-tetramethylpyrazine] |  | failed to inhibit feeding |  | 37.5 | inhibited feeding | inhibited |  |  | 50 |  | 27.50 | 40 | 66.7 | significantly inhibited feeding | 0 | 11.2
